# Test results from US20110028441A1, “NOVEL PHENYL-SUBSTITUTED PIPERAZINO-DIHYDROTHIENOPYRIMIDINES” (BOEHRINGER INGELHEIM INTERNATIONAL GMBH, priority 2007, published 2011).
# Like-named read-outs stand apart in the source and are kept apart here.
# Target: PDE4B (Homo sapiens, UniProt Q07343)
# Assay: Scintillation Proximity (SPA) Assay of PDE4B enzyme inhibition
# Format: biochemical
# Settings: read-out: % Inhibition PDE4B @ 1 μM
# Method: The inhibitions (in %) at 1 μM of the individual Example substances are included in the following Tables of Examples and were determined as follows:
# The Scintillation Proximity (SPA) Assays (GE Healthcare, No. TRKQ7090) make use of the different affinities of cyclic 3′-5′-adenosine monophosphate (cAMP, low affinity) and linear 5′-adenosine monophosphate (AMP, high affinity) for yttrium silicate scintillator beads. The cAMP specific phosphodiesterase (PDE) PDE4B cleaves the 3′-phosphoester bond of the tritium-labelled [H3]-cAMP to form the [H3]-5′-AMP. Because of its higher affinity for the scintillator beads this [H3]-AMP accumulates on the beads and causes scintillation events (flashes of light) which are measured in a Wallac Microbeta Scintillation Counter.
# The test starts with one hours incubation of [H3]-cAMP with the PDE4B enzyme in assay buffer at 30° C., once with the Example substance that is to be tested (in a concentration of 1 μM) and once without the Example substance that is to be tested. After this incubation the reaction is stopped by the addition of the beads. The beads are given an opportunity to settle over the next 45 minutes, then they are measured in the Scintillation Counter. If the substance is capable of inhibiting the enzymatic activity of the PDE4B, less [H3]-AMP is formed during the incubation phase and fewer scintillation events can be measured.
# [1] = test substance 1 μM, one hour incubation of [H3]-cAMP with PDE4B enzyme at 30° C.
# PDE4B, sequence (Q07343 whole entry, species assumed): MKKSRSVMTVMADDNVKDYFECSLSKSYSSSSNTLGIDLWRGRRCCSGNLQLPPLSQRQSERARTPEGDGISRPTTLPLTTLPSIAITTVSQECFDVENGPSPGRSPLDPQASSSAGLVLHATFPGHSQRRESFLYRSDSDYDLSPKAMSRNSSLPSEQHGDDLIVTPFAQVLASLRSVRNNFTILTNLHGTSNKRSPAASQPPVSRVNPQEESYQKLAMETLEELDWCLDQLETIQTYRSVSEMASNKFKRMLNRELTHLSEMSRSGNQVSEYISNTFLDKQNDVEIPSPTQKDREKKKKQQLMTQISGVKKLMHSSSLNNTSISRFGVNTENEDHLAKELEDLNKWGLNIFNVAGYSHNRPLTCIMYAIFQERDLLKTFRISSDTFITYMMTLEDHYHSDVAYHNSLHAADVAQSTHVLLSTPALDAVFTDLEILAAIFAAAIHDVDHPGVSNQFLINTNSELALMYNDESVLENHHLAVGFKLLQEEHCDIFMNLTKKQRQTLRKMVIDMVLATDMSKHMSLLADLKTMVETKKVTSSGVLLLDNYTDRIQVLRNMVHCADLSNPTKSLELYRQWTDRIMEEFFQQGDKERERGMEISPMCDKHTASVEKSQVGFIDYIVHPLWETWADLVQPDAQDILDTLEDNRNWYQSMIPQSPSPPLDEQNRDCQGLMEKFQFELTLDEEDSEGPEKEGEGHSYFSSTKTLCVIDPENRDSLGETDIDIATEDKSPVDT
Structure (SMILES),inhibition at 1 µM [1] [%],inhibition at 1 µM [%]
"[O-][S+]1CCc2nc(N3CCN(c4ccccc4Cl)CC3)nc(NC3CCOCC3)c21 (centres unmarked) [Example 19, {2-[4-(2-chlorophenyl)-piperazin-1-yl]-5-oxo-6,7-dihydro-5H-5λ^4-thieno[3,2-d]pyrimidin-4-yl}-(tetrahydropyran-4-yl)-amine]",95,–
"Cc1cc(C)cc(N2CCN(c3nc4c(c(Nc5cccc(F)c5)n3)[S+]([O-])CC4)CC2)c1 (centres unmarked) [Example 100, {2-[4-(3,5-DIMETHYLPHENYL)-PIPERAZIN-1-YL]-5-OXO-6,7-DIHYDRO-5H-5λ^4-THIENO[3,2-D]PYRIMIDIN-4-YL}-(3-FLUOROPHENYL)-AMINE]",–,97
"CC(C)C(CO)Nc1nc(N2CCN(c3ccc(Cl)c(F)c3)CC2)nc2c1[S+]([O-])CC2 [Example 60, (R)-2-{2-[4-(4-chloro-3-fluorophenyl)-piperazin-1-yl]-5-oxo-6,7-dihydro-5H-5λ^4-thieno[3,2-d]pyrimidin-4-ylamino}-3-methylbutan-1-ol]",94,–
"Cc1cccc(N2CCN(c3nc4c(c(Nc5cccc(F)c5)n3)[S+]([O-])CC4)CC2)c1 (centres unmarked) [Example 50, (3-FLUOROPHENYL)-[5-OXO-2-(4-m-TOLYLPIPERAZIN-1-YL)-6,7-DIHYDRO-5H-5λ^4-THIENO[3,2-D]PYRIMIDIN-4-YL]-AMINE]",96,–
"N#Cc1ccccc1N1CCN(c2nc3c(c(Nc4cccc(F)c4)n2)[S+]([O-])CC3)CC1 (centres unmarked) [Example 22, 2-{4-[4-(3-FLUOROPHENYLAMINO)-5-OXO-6,7-DIHYDRO-5H-5λ^4-THIENO[3,2-D]PYRIMIDIN-2-YL]-PIPERAZIN-1-YL}-BENZONITRILE]",97,–
"[O-][S+]1CCc2nc(N3CCN(c4ccc(Cl)c(F)c4)CC3)nc(NC3CCOCC3)c21 (centres unmarked) [Example 62, {2-[4-(4-CHLORO-3-FLUOROPHENYL)-PIPERAZIN-1-YL]-5-OXO-6,7-DIHYDRO-5H-5λ^4-THIENO[3,2-D]PYRIMIDIN-4-YL}-(TETRAHYDROPYRAN-4-YL)-AMINE]",95,–
"[O-][S+]1CCc2nc(N3CCN(c4ccc(Cl)c(F)c4)CC3)nc(NC3(CO)CC3)c21 (centres unmarked) [Example 61, (1-{2-[4-(4-CHLORO-3-FLUOROPHENYL)-PIPERAZIN-1-YL]-5-OXO-6,7-DIHYDRO-5H-5λ^4-THIENO[3,2-D]PYRIMIDIN-4-YLAMINO}-CYCLOPROPYL)-METHANOL]",95,–
"COc1ccccc1N1CCN(c2nc3c(c(Nc4cccc(F)c4)n2)[S+]([O-])CC3)CC1 (centres unmarked) [Example 21, (3-FLUOROPHENYL)-{2-[4-(2-METHOXYPHENYL)-PIPERAZIN-1-YL]-5-OXO-6,7-DIHYDRO-5H-5λ^4-THIENO[3,2-D]PYRIMIDIN-4-YL}-AMINE]",96,–
"CN1C[C@@H](Nc2nc(N3CCN(c4ccccc4Cl)CC3)nc3c2[S+]([O-])CC3)CCC1=O (stereo partly drawn) [Example 14, (S)-5-{2-[4-(2-chlorophenyl)-piperazin-1-yl]-5-oxo-6,7-dihydro-5H-5λ^4-thieno[3,2-d]pyrimidin-4-ylamino}-1-methylpiperidin-2-one]",96,–
"Cc1cc(Cl)ccc1N1CCN(c2nc3c(c(Nc4cccc(F)c4)n2)[S+]([O-])CC3)CC1 (centres unmarked) [Example 67, {2-[4-(4-CHLORO-2-METHYLPHENYL)-PIPERAZIN-1-YL]-5-OXO-6,7-DIHYDRO-5H-5λ^4-THIENO[3,2-D]PYRIMIDIN-4-YL}-(3-FLUOROPHENYL)-AMINE]",94,–
"CC(C)[C@H](CO)Nc1nc(N2CCN(c3cc(Cl)cc(Cl)c3)CC2)nc2c1[S+]([O-])CC2 (stereo partly drawn) [Example 68, (R)-2-{2-[4-(3,5-DICHLOROPHENYL)-PIPERAZIN-1-YL]-5-OXO-6,7-DIHYDRO-5H-5λ^4-THIENO[3,2-D]PYRIMIDIN-4-YLAMINO}-3-METHYLBUTAN-1-OL]",96,–
